Experimental data published in a compilation of properties of binary mixtures (doi:10.1016/j.molliq.2022.120564).

Assay: xn = mol fraction of the nth substance listed
Conditions: 298.15 K, 101.3 kPa

CC(=O)[O-].CCCC[N+]1(C)CCCC1 + O
Conditions	electrical conductivity [S/m]
x1 = 0.005	1.84
x1 = 0.029	2.8
x1 = 0.046	2.63
x1 = 0.069	2.17
x1 = 0.095	1.79
x1 = 0.111	1.26
x1 = 0.138	1.18
x1 = 0.215	0.8
x1 = 0.253	0.575
x1 = 0.305	0.495
x1 = 0.396	0.339
x1 = 0.5	0.193
x1 = 0.658	0.142
